Here are results for ten molecules from ChEMBL document CHEMBL1821607, “N-Arylalkyl-2-azaadamantanes as cage-expanded polycarbocyclic sigma (σ) receptor ligands” (Bioorg Med Chem Lett, 2011).

A short description of test [1]: Displacement of [3H]DTG from sigma 2 receptor in rat liver homogenates in presence of sigma-1 receptor blocker (+)-pentazocine after 120 mins by liquid scintillation counting. It is filed as tissue-based.
The nature of test [2]: Selectivity ratio of Ki for sigma 1 receptor in guinea pig brain to Ki for sigma 2 receptor in rat liver.
In test [3] the target is Sigma non-opioid intracellular receptor 1 (Cavia porcellus, UniProt Q60492). Briefly: Displacement of [3H](+)-pentazocine from sigma 1 receptor in guinea pig brain homogenates after 90 mins by scintillation counting. The test is classed as tissue-based. For orientation: In a radioligand displacement assay an active substance lowers the binding of a labelled ligand.
Test [4] is described as follows: Selectivity ratio of Ki for sigma 2 receptor in rat liver to Ki for sigma 1 receptor in guinea pig brain.

SMILES strings stand for the structures.

Sigma non-opioid intracellular receptor 1, sequence (Q60492 whole entry): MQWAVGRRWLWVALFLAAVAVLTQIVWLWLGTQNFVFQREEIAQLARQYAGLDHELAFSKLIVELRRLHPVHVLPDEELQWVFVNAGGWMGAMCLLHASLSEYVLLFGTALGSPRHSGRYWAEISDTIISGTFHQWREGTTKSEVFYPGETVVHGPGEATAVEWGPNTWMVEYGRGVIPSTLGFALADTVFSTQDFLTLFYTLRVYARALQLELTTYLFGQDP

One may read the Ki as a dissociation constant, usually derived from enzyme kinetics or from competition with a known ligand. Turning to `OC12CC3CC(CC(C3)N1CCc1ccc(F)cc1)C2` (racemic), the Ki is 201 nM in test [1] and 246 nM in test [3]. Also, in test [2], the Ratio Ki was 1.2.
For `OC12CC3CC(CC(C3)N1CCc1cccc(F)c1)C2` (racemic), the Ki was found to be 250 nM in test [1] and 234 nM in test [3]. Also, the Ratio Ki in test [4] is 1.1.
For `Fc1ccc(CN2C3CC4CC(C3)CC2C4)cc1` the same measures were 90 nM, 12 nM and 7.5.
For `COc1ccc(CN2C3CC4CC(C3)CC2C4)cc1`, in that order: 54 nM, 12.4 nM and 4.4.
For `Fc1ccc(CCN2C3CC4CC(C3)CC2C4)cc1`, in that order: 34 nM, 12.8 nM and 2.7.
`COc1cccc(CN2C3CC4CC(C3)CC2C4)c1`: the Ki in test [1] was 64 nM; in test [3], 239 nM. Besides, the Ratio Ki in test [2] amounted to 3.7.
For `COc1cccc(CN2C3CC4CC(C3)CC2(O)C4)c1` (racemic) the same measures were 353 nM, 1950 nM and 5.5.
For `COc1ccc(CN2C3CC4CC(C3)CC2(O)C4)cc1` (racemic) the same measures were 426 nM, 1240 nM and 2.9.
Consider `OC12CC3CC(CC(C3)N1Cc1ccc(F)cc1)C2` (racemic), for which the Ki turned out to be 826 nM in test [1] and 650 nM in test [3]. The Ratio Ki in test [4] was determined as 1.3.
For `Fc1cccc(CCN2C3CC4CC(C3)CC2C4)c1` the same measures were 40 nM, 8.3 nM and 4.8.
